Source: patent US20250170079A1, “COMBINATIONS OF STAT-INHIBITORS AND IMMUNE CHECKPOINT INHIBITORS FOR THE TREATMENT AND/OR MANAGEMENT OF CANCER” (Tvardi Therapeutics, Inc., priority 2022, published 2025)

Legend:
[1] = system: subcutaneous liver cancer syngeneic model H22; assay: In vivo efficacy study of TTI-101 ± anti-PD-1 in subcutaneous liver cancer syngeneic model H22; set-up: species or system female BALB/c mice; conditions: TTI-101 1.2 mg/mouse p.o. BID*3 weeks and/or anti-PD-1 10 mg/kg i.p. BIW*3 weeks
Text: The objective of efficacy study was to evaluate preclinically the in vivo therapeutic efficacy of TTI-101 alone and in combination with anti-PD-1 in the treatment of subcutaneous liver cancer syngeneic model H22 in female BALB/c mice. The objective of rechallenge study was to evaluate immune memory of the female BALB/c mice previously cured from subcutaneous liver cancer syngeneic model H22 by TTI-101 combined with anti-PD-1.
Dosing volume of Anti-PD-1 (clone RMP1-14) was adjusted for body weight. The concentration of anti-PD-1 was 1 mg/mL, and dosing volume was 10 μL/g. The anti-PD-1 dosing solution was prepared by diluting 1.372 mL of anti-PD-1 (8.2 mg/mL) with 9.878 mL of PBS.
A composition of TTI-101 (72 mg/mL) dissolved in Kolliphor RH40, PEG600, Labrasol, Tween 20, and citric acid solution, was then dispersed in 1:2 water (vortexed) to form the dosing emulsion. The concentration of TTI-101 in the dosing emulsion was 24 mg/mL.
The H22 tumor cells were maintained in vitro with RPMI1640 medium supplemented with 10% fetal bovine serum (FBS) at 37° C. in an atmosphere of 5% CO2 in air. The cells in exponential growth phase were harvested and quantitated by cell counter before tumor inoculation.
In efficacy study, each mouse was inoculated subcutaneously in the right front flank region with tumor cells (1×10^6) in 0.1 ml of PBS for tumor development.
The randomization in efficacy study started when the mean tumor size reached approximately 73 mm^3 (for groups 1-5) and 96 mm^3 (for groups 6-9). Totally 82 mice were enrolled in the study and randomly allocated to 9 study groups, with 10 mice per group (groups 1-5) and 8 mice per group (groups 6-9). Randomization was performed based on “Matched distribution” method (Study Director TM software, version 3.1.399.19). The date of randomization was denoted as Day 1.
Test articles were given between 8 am-9 am then again between 4 pm-5 pm.
For group 5, TTI-101 was initiated 5 days post anti-PD-1 dosing per the request.
Tumor volumes were measured twice per week after randomization in two dimensions using a caliper, and the volume was expressed in mm^3 using the formula: V=(L×W×W)/2, where V is tumor volume, L is tumor length (the longest tumor dimension) and W is tumor width (the longest tumor dimension perpendicular to L). Dosing as well as tumor and body weight measurements were conducted in a Laminar Flow Cabinet.
Tumor growth inhibition (TGI), T/C value and Survival was applied at the endpoint.
Tumor regression (REG)=[(T0−Ti)/T0]×100%;
Tumor Growth Inhibition; TGI %=(1−Ti/Ci)*100;
Treatment/Control (T/C) value (%) is an indicator of tumor response to treatment, and one of commonly used anti-tumor activity endpoint; T and C are the mean tumor volumes of the treatment and control groups, respectively, on a given day. […]

[2] = Bioavailability and pharmacokinetics of TTI-101 following IP or PO administration; type: in vivo, male Sprague-Dawley rats; conditions: PO 25 mg/kg vs IP 25.6 mg/kg, single dose, rats
Experimental: Bioavailability and pharmacokinetics of TTI-101 in male Sprague-Dawley rats were evaluated following a single oral (PO) dose at 25 mg/kg (in labrasol:PEG400, 60:40% v/v) and a single intraperitoneal (IP) dose at 25.6 mg/kg (pH 7.4 PBS/propylene glycol/ethanol/DMSO, 20:70:5:5% v/v).

[3] = Day 21, vs vehicle+isotype group

Structure (SMILES): COc1ccc(S(=O)(=O)Nc2cc(-c3c(O)ccc4ccccc34)c(O)c3ccccc23)cc1 [TTI-101, N-(1′,2-dihydroxy-1,2′-binaphthalen-4′-yl)-4-methoxybenzenesulfonamide]
- T/C (%) on Day 21 [1, 3]: 78.33%
- TGI (%) on Day 21 [1, 3]: 21.67%
- CR Ratio (tumor complete response, tumor regressed to 0) ([1]; animals with CR / animals per group): 0/10
- Tumor volume (mm^3) (N) on Day 21 ([1]; mean ± SEM, Day 21): 2073.36 mm^3
- greater exposure by oral administration compared to interperitoneal administration [2]: 90%
